Data: patent publication US9676870B2, “Methods of treating atherosclerosis and aneurysm” (The Brigham and Women's Hospital, Inc., priority 2011, dated 2017)
“Also recorded” adds a separate entry of the source. Residues, ends and D or L forms follow the SMILES beside them. *: point of attachment. Cbz = O=C(OCc1ccccc1)*; CH2F = FC*

Tests used:
Assay type in all cases: cell-based
[1] = system: human monocyte-derived macrophages; assay: Human monocyte-derived macrophage apoptosis (TUNEL staining)
Experimental: (§1) Human macrophages were prepared by differentiating Ficoll gradient-separated monocytes from human blood in RPMI with 10% human serum (Gemini Bio-Products, West Sacramento, Calif.) for 10 days on Falcon PRIMARIA™ tissue culture dishes (Becton Dickinson Labware, Franklin Lakes, N.J.) without coating. Mouse thioglycolate (3%, Sigma, St. Louis, Mo.)-stimulated peritoneal macrophages were prepared from WT C57BL/6 mice (Jackson Laboratory), Fcer1a^−/− mice (congenic C57BL/6, N>8) (21), Tlr2^−/− mice (Jackson Laboratory, N16), and […] (Jackson Laboratory, C57BL/6, N8). Cells were cultured in RPMI-1640 with 10% fetal bovine serum (FBS). Human aortic SMCs and ECs were obtained from human donor aortas and subcultured at passages 2-5 in DMEM containing 10% FBS (for SMCs), or in medium 199 containing 20% FBS (for ECs).
(§2) To detect IgE-induced apoptosis, human and mouse macrophages and HuSMC were cultured on 8-well chamber slides, 96-well plates, or 6-well plate pre-coated with 1% gelatin. […]

[2] = system: mouse peritoneal macrophages; assay: Mouse peritoneal macrophage IL6 / MCP-1 production (ELISA, real-time PCR)
Experimental: as §1
(§3) To detect cytokine production, cells were starved in corresponding media containing 0.5% FBS overnight, then incubated for 2 days in starvation media containing IgE (50 μg/mL for macrophages; 100 μg/mL for SMCs and ECs). Mouse poorly cytokinergic monomeric IgE H1 DNP-ε-206 (50 μg/mL) (34) and highly cytokinergic aggregated IgE SPE-7 (50 μg/mL) (Sigma) with or without LPS (100 ng/mL), ox-LDL (50 μg/mL), or DNP-HSA (10 ng/mL) were used to stimulate mouse macrophages. Human IgE was obtained from Immunology Consultants Laboratory, Inc. (Newberg, Oreg., RA-80E). […]

[3] = system: human macrophages; assay: IgE-induced human macrophage medium pH reduction
Experimental: as §1, §2

[4] = system: human macrophages; assay: IgE-induced human macrophage cell death (MTT assay); details: human macrophages from most donors, IgE 50 μg/mL
Experimental: as §1, §2

[5] = system: mouse peritoneal macrophages; assay: Mouse peritoneal macrophage apoptosis / cell death (TUNEL, MTT); details: 50-100 μM EIPA, 50 μg/mL mouse IgE (SPE-7)
Experimental: as §1, §2

[6] = system: human macrophages; assay: IgE-induced human macrophage IL6 secretion; details: human macrophages from most donors; IgE 50 μg/mL
Experimental: as §1, §3

[7] = system: HuSMCs; assay: Cultured human aortic SMC (HuSMC) stimulation: immunoblot, cytokines, cell death; details: IFN-γ 20 ng/mL, 50 μg lysate
Experimental: as §1, §3

[8] = system: HuECs; assay: Cultured human EC (HuEC) stimulation: immunoblot, cell death; details: IFN-γ 20 ng/mL, 50 μg lysate
Experimental: as §1, §3

## COC(=O)C[C@H](NC(=O)[C@H](C)NC(=O)[C@@H](NC(=O)OCc1ccccc1)C(C)C)C(=O)CF [ZVAD-FMK] (Cbz-Val-Ala-Asp(OMe)-CH2F)
[1]; ZVAD-FMK 20 μM, IgE 50 μg/mL
  blocking of IgE-induced human macrophage apoptosis: blocked; also recorded: efficiently blocks

## dinitrophenyl-human serum albumin [DNP-HSA]
[2]; 10 ng/mL DNP-HSA, pH, cell death and IL6 assays
  impact of antigen on SPE-7 or H1 DNP-ε-206 in macrophage activity assays: no significant impact

## CCN(c1nc(N)c(C(=O)NC(=N)N)nc1Cl)C(C)C [EIPA, ethylisopropylamiloride]
[3]; 10 μM EIPA, IgE 50 μg/mL
  blocking of IgE-induced medium color change and pH reduction: completely blocked
[3]; EIPA alone, no IgE
  pH change by EIPA treatment alone: did not change pH
[4]
  blocking of IgE-induced cell death: significantly blocked
[1]; 10 μM EIPA, same condition as LPS, 2-3 days, data not shown
  cell death caused by EIPA alone: did not cause any cell death
[2]; 50-100 μM EIPA, 50 μg/mL mouse IgE (SPE-7)
  blocking of IgE-induced macrophage secretion of IL6: blocked significantly
[5]
  blocking of IgE-induced macrophage apoptosis: blocked significantly
[6]
  blocking of IgE-induced IL6 secretion: significantly blocked

B1: IFN-γ: inflammatory cytokine (protein, UniProt P01579 24-161, looked up)
Interferon gamma: QDPYVKEAENLKKYFNAGHSDVADNGTLFLGILKNWKEESDRKIMQSQIVSFYFKLFKNFKDDQSIQKSVETIKEDMNVKFFNSNKKKRDDFEKLTNYSVTDLNVQRKAIHELIQVMAELSPAAKTGKRKRSQMLFRG
[7]
  FcεR1α expression in SMCs: induced FcεR1α expression
[8]
  FcεR1α expression in ECs: induced FcεR1α expression
